Results published in patent publication US20100222302A1, “Novel Antibacterial Compounds” (priority 2005, published 2010).
In brackets after ≈: the same amount, converted by molar mass.

Key:
Experiment in all cases: MIC by broth microdilution (NCCLS M7-A4)
Format in all cases: cell-based
M catarrhalis A894 = conditions: cation-adjusted Mueller-Hinton Broth, pH 7.2-7.3
Description: (§1) These assays have been performed following the description given in “Methods for dilution Antimicrobial Susceptibility Tests for Bacteria that Grow Aerobically, 4th ed.; Approved standard: NCCLS Document M7-A4; National Committee for Clinical Laboratory Standards Villanova, Pa., USA, 1997”. Minimal inhibitory concentrations (MICs; mg/l) were determined in cation-adjusted Mueller-Hinton Broth (BBL) by a microdilution method following NCCLS guidelines (National Committee for Clinical Laboratory Standards. Methods for Dilution Antimicrobial Susceptibility). The pH of the test medium was 7.2-7.3. All the above Examples were tested against several Gram positive and Gram negative bacteria.

S. aureus A798 = conditions: Staphylococcus aureus, cation-adjusted Mueller-Hinton Broth, pH 7.2-7.3
Description: as §1

S Pneunoniae 49619 = conditions: cation-adjusted Mueller-Hinton Broth, pH 7.2-7.3
Description: as §1

MIC (M catarrhalis A894) [µg/mL] | MIC (S. aureus A798) [µg/mL] | MIC (S Pneunoniae 49619) [µg/mL] | Structure (SMILES)
≤ 0.063 | ≤ 0.063 | ≤ 0.063 | CC(=O)NC[C@H]1CN(c2ccc(OC[C@]3(O)C[C@H]4COc5c(c(F)cc6c(=O)c(C(=O)O)cn(C7CC7)c56)N4C3)c(F)c2)C(=O)O1 [Example 2, (13S,16S)-16-{4-[(5S)-5-(acetylamino-methyl)-2-oxo-oxazolidin-3-yl]-2-fluoro-phenoxymethyl}-1-cyclopropyl-7-fluoro-16-hydroxy-4-oxo-1,4,13,15,16,17-hexahydro-12H-11-oxa-1,14-diaza-cyclopenta[a]phenanthrene-3-carboxylic acid]
≤ 0.063 | ≤ 0.063 | ≤ 0.063 | O=C(O)c1cn(C2CC2)c2c3c(c(F)cc2c1=O)N1C[C@](O)(COc2ccc(N4C[C@H](Cn5ccnn5)OC4=O)cc2F)C[C@H]1CO3 [Example 1, (13S,16S)-1-cyclopropyl-7-fluoro-16-[2-fluoro-4-((5R)-2-oxo-5-[1,2,3]triazol-1-ylmethyl-oxazolidin-3-yl)-phenoxymethyl]-16-hydroxy-4-oxo-1,4,13,15,16,17-hexahydro-12H-11-oxa-1,14-diaza-cyclopenta[a]phenanthrene-3-carboxylic acid]
0.25 (≈ 0.384 µM) | ≤ 0.063 | ≤ 0.063 | O=C(O)c1cn(C2CC2)c2c3c(c(F)cc2c1=O)N1C[C@](O)(COc2ccc(N4C[C@H](Cn5ccnn5)OC4=O)cc2F)C[C@@H]1CO3 [Example 4, (13R,16S)-1-cyclopropyl-7-fluoro-16-[2-fluoro-4-((5R)-2-oxo-5-[1,2,3]triazol-1-ylmethyl-oxazolidin-3-yl)-phenoxymethyl]-16-hydroxy-4-oxo-1,4,13,15,16,17-hexahydro-12H-11-oxa-1,14-diaza-cyclopenta[a]phenanthrene-3-carboxylic acid]
